Entries after “also recorded” stand apart in the source; their conditions may differ. Non-standard residues stand in square brackets, D forms with d. Residues, ends and D or L forms follow the SMILES beside them. No end group written: not given here. *: point of attachment. FITC = O=C1OC2(c3ccc(O)cc3Oc3cc(O)ccc32)c2ccc(NC(=S)*)cc21; pT = C[C@@H](OP(=O)(O)O)[C@H](N)C(=O)O; pS = N[C@@H](COP(=O)(O)O)C(=O)O

The target of one series is 14-3-3γ (gamma) (Homo sapiens, UniProt P61981). The series is classed as binding.
In the next series the target is 14-3-3γ (Homo sapiens, UniProt P61981). Type of series: binding.
Series [1] has as its system all seven human 14-3-3 isoforms. The series is classed as binding.
Another series concerns the target 14-3-3σ (sigma) (Homo sapiens, UniProt P31947). The series is classed as binding.
The series “crystal structure” deals with the molecule itself. Put plainly: crystal structure.
The target of series [2] is T1, Untagged full-length human 14-3-3γ (human, UniProt P61981 1-247).
T1 sequence: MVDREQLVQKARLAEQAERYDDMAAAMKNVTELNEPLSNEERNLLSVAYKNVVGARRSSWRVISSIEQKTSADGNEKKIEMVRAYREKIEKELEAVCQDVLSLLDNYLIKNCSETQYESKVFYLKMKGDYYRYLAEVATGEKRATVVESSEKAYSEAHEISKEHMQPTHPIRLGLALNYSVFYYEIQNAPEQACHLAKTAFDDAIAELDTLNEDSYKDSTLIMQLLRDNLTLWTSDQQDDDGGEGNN
Put plainly: fluorescence polarisation.

Chain of 14-3-3σ (sigma) (P31947 whole entry): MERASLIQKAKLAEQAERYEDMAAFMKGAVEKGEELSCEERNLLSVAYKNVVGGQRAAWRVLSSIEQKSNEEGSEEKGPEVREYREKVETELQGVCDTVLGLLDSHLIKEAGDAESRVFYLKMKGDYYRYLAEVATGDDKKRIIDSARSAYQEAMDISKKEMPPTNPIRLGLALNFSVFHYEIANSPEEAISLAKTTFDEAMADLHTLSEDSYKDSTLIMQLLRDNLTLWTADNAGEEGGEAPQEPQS

For the molecule `O=C1OC2(c3ccc(O)cc3Oc3cc(O)ccc32)c2ccc(N=C=S)cc21` [free FITC, fluorescein 5-isothiocyanate, reference compound], on 14-3-3γ (gamma), the “Binding to MBP-14-3-3 (free FITC control)” value is recorded as “did not show significant binding”.
With WLRRApSAPLPGLK [pB6], the “Displacement of FITC-labeled peptide from 14-3-3” value at 14-3-3γ is listed as “could be disrupted”.
For the molecule `CSCC[C@H](NC(=O)[C@H](CCCNC(=N)N)NC(=O)[C@H](C)NC(=O)[C@@H]1CCCN1C(=O)[C@H](CO)NC(=O)[C@@H](NC(=O)CNC(=O)[C@H](CCCNC(=N)N)NC(=O)[C@H](CO)NC(=O)[C@H](CO)NC(=O)[C@H](Cc1c[nH]c2ccccc12)NC(=S)Nc1ccc2c(c1)C(=O)OC21c2ccc(O)cc2Oc2cc(O)ccc21)[C@@H](C)OP(=O)(O)O)C(=O)O` [pT205] ({FITC}-WSSRG[pT]SPARM-OH), in series [1], the “Affinity preference” value is reported as “preferred over the pS197-motif by all seven human 14-3-3 isoforms; also recorded: consistently tighter affinity than the pS197 fragment”; the “KD ratio between weakest (14-3-3σ/pS197) and strongest (14-3-3γ/pT205) pair” value is approximately 10 fold; the “Order of affinity over the 14-3-3 isoforms” value was “gamma (γ) > eta (η) > beta (β) > epsilon (ε) > zeta (ζ) > tau (τ) > sigma (σ)”; the “Ratio of the average KD values pS197/pT205” value was found to be 4.3 fold. The “Ratio: affinity of 14-3-3σ to pT205 versus pS197 peptide” value on 14-3-3σ (sigma) was approximately 3 times tighter. Besides, the “Selectivity coefficient (KD pS197 / KD pT205), gamma” value at 14-3-3γ (gamma) is approximately 7.

B1: C-terminally truncated human 14-3-3σ (residues 1–231) Clu3 mutant (75EEK77 → 75AAA77) (domain or fragment)
chain: MERASLIQKAKLAEQAERYEDMAAFMKGAVEKGEELSCEERNLLSVAYKNVVGGQRAAWRVLSSIEQKSNEEGSAAAGPEVREYREKVETELQGVCDTVLGLLDSHLIKEAGDAESRVFYLKMKGDYYRYLAEVATGDDKKRIIDSARSAYQEAMDISKKEMPPTNPIRLGLALNFSVFHYEIANSPEEAISLAKTTFDEAMADLHTLSEDSYKDSTLIMQLLRDNLTLWT
A word on the stoichiometry N: it is a count of units in the complex or per binding partner. For the molecule B1, in “crystal structure”, the “stoichiometry N” value was determined as 2.

B2: C-terminally truncated human 14-3-3σ (residues 1–231) Clu1 mutant (159KKE161 → 159AAA161) (domain or fragment)
chain: MERASLIQKAKLAEQAERYEDMAAFMKGAVEKGEELSCEERNLLSVAYKNVVGGQRAAWRVLSSIEQKSNEEGSEEKGPEVREYREKVETELQGVCDTVLGLLDSHLIKEAGDAESRVFYLKMKGDYYRYLAEVATGDDKKRIIDSARSAYQEAMDISAAAMPPTNPIRLGLALNFSVFHYEIANSPEEAISLAKTTFDEAMADLHTLSEDSYKDSTLIMQLLRDNLTLWT
On to B2, for which, in “crystal structure”, the “stoichiometry N” value is 2.
With WLRRA[pS]APLPGLK [Unlabeled phosphopeptide of human HSPB6 (pB6) WLRRApSAPLPGLK], the binding result in series [2] is reported as “binds”.

Source of the values: PMC9683861 (Journal of Molecular Biology, 2022).
